In ChEMBL document CHEMBL1137017, “In vitro antiviral activity and cross-resistance profile of PL-100, a novel protease inhibitor of human immunodeficiency virus type 1” (Antimicrob Agents Chemother, 2007):

How the values were obtained:
[1] = tested on: Human immunodeficiency virus 1; assay: Resistance index, ratio of EC50 for HIV1 with protease 54V/84V mutation to EC50 for wild type HIV1 NL4-3 in HEK293 cells after 48 hrs by replication-deffective luciferase reporter gene-based phenotypic assay; assay type: functional
[2] = tested on: Human immunodeficiency virus 1; assay: Resistance index, ratio of EC50 for non-B type HIV1 with protease 46I/47V/84V mutation to EC50 for wild type HIV1 NL4-3 in HEK293 cells after 48 hrs by replication-deffective luciferase reporter gene-based phenotypic assay; assay type: functional
[3] = tested on: Human immunodeficiency virus 1; assay: Resistance index, ratio of EC50 for HIV1 with protease 33F/54L/82A/90M mutation to EC50 for wild type HIV1 NL4-3 in HEK293 cells after 48 hrs by replication-deffective luciferase reporter gene-based phenotypic assay; assay type: functional
[4] = tested on: Human immunodeficiency virus 1; assay: Resistance index, ratio of EC50 for HIV1 with protease 46L/48V/82A/84V mutation to EC50 for wild type HIV1 NL4-3 in HEK293 cells after 48 hrs by replication-deffective luciferase reporter gene-based phenotypic assay; assay type: functional
[5] = tested on: Human immunodeficiency virus 1; assay: Resistance index, ratio of EC50 for SQV-resistant HIV1 4596 carrying L10R/M46I/L63P/[…]/L90M mutation to EC50 for wild type HIV1 NL4-3 in HEK293 cells after 48 hrs by replication-deffective luciferase reporter gene-based phenotypic assay; assay type: functional
[6] = tested on: Human immunodeficiency virus 1; assay: Resistance index, ratio of EC50 for HIV1 with protease 33F/46I/84V/88D/90M mutation to EC50 for wild type HIV1 NL4-3 in HEK293 cells after 48 hrs by replication-deffective luciferase reporter gene-based phenotypic assay; assay type: functional
[7] = Inhibition of pig pepsin; set-up: species or system Sus scrofa
[8] = tested on: Human immunodeficiency virus 1; assay: Resistance index, ratio of EC50 for HIV1 with protease 46I/47A/84V mutation to EC50 for wild type HIV1 NL4-3 in HEK293 cells after 48 hrs by replication-deffective luciferase reporter gene-based phenotypic assay; assay type: functional
[9] = tested on: Human immunodeficiency virus 1; assay: Resistance index, ratio of EC50 for HIV1 with protease 33F/54V/73S/82A/84V/90M mutation to EC50 for wild type HIV1 NL4-3 in HEK293 cells after 48 hrs by replication-deffective luciferase reporter gene-based phenotypic assay; assay type: functional
[10] = tested on: Human immunodeficiency virus 1; assay: Resistance index, ratio of EC50 for HIV1 with protease 46I/50V mutation to EC50 for wild type HIV1 NL4-3 in HEK293 cells after 48 hrs by replication-deffective luciferase reporter gene-based phenotypic assay; assay type: functional
[11] = tested on: Human immunodeficiency virus 1; assay: Resistance index, ratio of EC50 for HIV1 with protease 33F/50V mutation to EC50 for wild type HIV1 NL4-3 in HEK293 cells after 48 hrs by replication-deffective luciferase reporter gene-based phenotypic assay; assay type: functional
[12] = tested on: Human immunodeficiency virus 1; assay: Resistance index, ratio of EC50 for HIV1 with protease 24I/33F/46I/54L/82A mutation to EC50 for wild type HIV1 NL4-3 in HEK293 cells after 48 hrs by replication-deffective luciferase reporter gene-based phenotypic assay; assay type: functional
[13] = tested on: Human immunodeficiency virus 1; assay: Antiviral activity against wild type HIV1 NL4-3 in HEK293 cells after 48 hrs by replication-deffective luciferase reporter gene-based phenotypic assay; assay type: functional, organism-based; conditions: Human immunodeficiency virus 1, NL4-3, HEK293, 48 h
[14] = tested on: Human immunodeficiency virus 1; assay: Resistance index, ratio of EC50 for HIV1 with protease 30N/88D/90M mutation to EC50 for wild type HIV1 NL4-3 in HEK293 cells after 48 hrs by replication-deffective luciferase reporter gene-based phenotypic assay; assay type: functional
[15] = tested on: Human immunodeficiency virus 1; assay: Resistance index, ratio of EC50 for HIV1 with protease 46L mutation to EC50 for wild type HIV1 NL4-3 in HEK293 cells after 48 hrs by replication-deffective luciferase reporter gene-based phenotypic assay; assay type: functional
[16] = tested on: Human immunodeficiency virus 1; assay: Resistance index, ratio of EC50 for HIV1 with protease 46L/54V/73C/84V/90M mutation to EC50 for wild type HIV1 NL4-3 in HEK293 cells after 48 hrs by replication-deffective luciferase reporter gene-based phenotypic assay; assay type: functional
[17] = tested on: Human immunodeficiency virus 1; assay: Resistance index, ratio of EC50 for SQV-resistant HIV1 SaqR carrying G48V/L90MV mutation to EC50 for wild type HIV1 NL4-3 in HEK293 cells after 48 hrs by replication-deffective luciferase reporter gene-based phenotypic assay; assay type: functional
[18] = tested on: Human immunodeficiency virus 1; assay: Antiviral activity against wild type HIV1 NL4-3 infected in MT4 cells after 6 days by MTT assay; assay type: functional, organism-based; conditions: Human immunodeficiency virus 1, NL4-3, MT4, 144 h
[19] = tested on: Human immunodeficiency virus 1; assay: Resistance index, ratio of EC50 for HIV1 with protease 46I/82T/84V mutation to EC50 for wild type HIV1 NL4-3 in HEK293 cells after 48 hrs by replication-deffective luciferase reporter gene-based phenotypic assay; assay type: functional
[20] = Selectivity index, ratio of CC50 for human MT4 cells to EC50 for HIV1 NL4-3; assay type: toxicity, cell-based; conditions: read-out: Ratio CC50/EC50
[21] = tested on: Human immunodeficiency virus 1; assay: Resistance index, ratio of EC50 for HIV1 with protease 32I/46L/47V/84V mutation to EC50 for wild type HIV1 NL4-3 in HEK293 cells after 48 hrs by replication-deffective luciferase reporter gene-based phenotypic assay; assay type: functional
[22] = tested on: Human immunodeficiency virus 1; assay: Resistance index, ratio of EC50 for HIV1 with protease 46I/82A/84V/90M mutation to EC50 for wild type HIV1 NL4-3 in HEK293 cells after 48 hrs by replication-deffective luciferase reporter gene-based phenotypic assay; assay type: functional
[23] = tested on: Human immunodeficiency virus 1; assay: Resistance index, ratio of EC50 for HIV1 with protease 46I mutation to EC50 for wild type HIV1 NL4-3 in HEK293 cells after 48 hrs by replication-deffective luciferase reporter gene-based phenotypic assay; assay type: functional
[24] = tested on: Human immunodeficiency virus 1; assay: Resistance index, ratio of EC50 for HIV1 with protease 37S/41K/70E mutation to EC50 for wild type HIV1 NL4-3 in HEK293 cells after 48 hrs by replication-deffective luciferase reporter gene-based phenotypic assay; assay type: functional
[25] = tested on: Human immunodeficiency virus 1; assay: Resistance index, ratio of EC50 for HIV1 with protease 32I/46I/47V/50L mutation to EC50 for wild type HIV1 NL4-3 in HEK293 cells after 48 hrs by replication-deffective luciferase reporter gene-based phenotypic assay; assay type: functional
[26] = tested on: Human immunodeficiency virus 1; assay: Resistance index, ratio of EC50 for HIV1 with protease 84V/90M mutation to EC50 for wild type HIV1 NL4-3 in HEK293 cells after 48 hrs by replication-deffective luciferase reporter gene-based phenotypic assay; assay type: functional
[27] = tested on: Human immunodeficiency virus 1; assay: Resistance index, ratio of EC50 for HIV1 with protease 24I/33F/54V/82A/84V mutation to EC50 for wild type HIV1 NL4-3 in HEK293 cells after 48 hrs by replication-deffective luciferase reporter gene-based phenotypic assay; assay type: functional
[28] = tested on: Human immunodeficiency virus 1; assay: Resistance index, ratio of EC50 for HIV1 with protease 33F/46L/54V/82A/84V/90M mutation to EC50 for wild type HIV1 NL4-3 in HEK293 cells after 48 hrs by replication-deffective luciferase reporter gene-based phenotypic assay; assay type: functional
[29] = tested on: Human immunodeficiency virus 1; assay: Resistance index, ratio of EC50 for HIV1 with protease 54V/82A mutation to EC50 for wild type HIV1 NL4-3 in HEK293 cells after 48 hrs by replication-deffective luciferase reporter gene-based phenotypic assay; assay type: functional
[30] = Cytotoxicity against human MT4 cells after 6 days by MTT assay; assay type: cell-based

Row | SMILES | Ratio EC50 [1] | Ratio EC50 [2] | Ratio EC50 [3] | Ratio EC50 [4] | Ratio EC50 [6] | Ratio EC50 [8] | Ratio EC50 [9] | Ratio EC50 [10] | EC50 [13] [nM] | Ratio EC50 [15] | Ratio EC50 [16] | EC50 [18] [nM] | selectivity ratio [20] | Ratio EC50 [21] | Ratio EC50 [22] | Ratio EC50 [23] | Ratio EC50 [24] | Ratio EC50 [25] | Ratio EC50 [29] | CC50 at 144 h [30] [nM] | also measured
1 | COC(=O)N[C@H](C(=O)NCCCC[C@@H](CO)N(CC(C)C)S(=O)(=O)c1ccc(N)cc1)C(c1ccccc1)c1ccccc1 [PPL-100] | 0.8 | 4.3 | 30.3 | 1.2 | 5.6 | 14.8 | 37.2 | 0.8 | 5.3 | 1.1 | 10.8 | 16 | 2310 | 0.6 | 10.1 | 1.5 | 0.9 | 1.1 | 1.8 | 37000 | Activity [5]: 1.2; IC50 [7]: > 50000 nM; Ratio EC50 [11]: 2.7; Ratio EC50 [12]: 6.4; Ratio EC50 [14]: 1.4; fold change (FC) [17]: 2.4; Ratio EC50 [19]: 1.2; Ratio EC50 [26]: 2.3; Ratio EC50 [27]: 4.2; Ratio EC50 [28]: 18.4
2 | Cc1c(O)cccc1C(=O)N[C@@H](CSc1ccccc1)[C@H](O)CN1C[C@H]2CCCC[C@H]2C[C@H]1C(=O)NC(C)(C)C | 15 | 5.1 | 10.4 | 5.9 | 10 | 10.4 | 172.1 | 1.3 | 5.8 | 1.7 | 82.6 | 29 | 276 | 7.8 | 11.2 | 1.6 | 1.6 | 3.5 | 12.1 | 8000 | Ratio EC50 [11]: 3.6; Ratio EC50 [12]: 8.1; Ratio EC50 [14]: 42.1; Ratio EC50 [19]: 1.6; Ratio EC50 [26]: 12.1; Ratio EC50 [27]: 31.4; Ratio EC50 [28]: 31.4
3 | COC(=O)N[C@H](C(=O)N[C@@H](Cc1ccccc1)[C@@H](O)CN(Cc1ccc(-c2ccccn2)cc1)NC(=O)[C@@H](NC(=O)OC)C(C)(C)C)C(C)(C)C [ATAZANAVIR] | 8.3 | 7.1 | 7.5 | 21.5 | 14.7 | 9.5 | – | 0.4 | 1.5 | 0.9 | 55.2 | 4 | 17800 | 25 | 3.8 | 0.7 | 1.4 | 81.2 | 3.9 | 71000 | –
